The values that follow come from ChEMBL document CHEMBL5120900, “Structure-Based Discovery of a Series of NSD2-PWWP1 Inhibitors” (J Med Chem, 2022).

Where only a bound is given, the exact number is not on record here.

For test [1], the target named is T1, Histone-lysine N-methyltransferase NSD2 (Homo sapiens, UniProt O96028).
T1 sequence (O96028 whole entry): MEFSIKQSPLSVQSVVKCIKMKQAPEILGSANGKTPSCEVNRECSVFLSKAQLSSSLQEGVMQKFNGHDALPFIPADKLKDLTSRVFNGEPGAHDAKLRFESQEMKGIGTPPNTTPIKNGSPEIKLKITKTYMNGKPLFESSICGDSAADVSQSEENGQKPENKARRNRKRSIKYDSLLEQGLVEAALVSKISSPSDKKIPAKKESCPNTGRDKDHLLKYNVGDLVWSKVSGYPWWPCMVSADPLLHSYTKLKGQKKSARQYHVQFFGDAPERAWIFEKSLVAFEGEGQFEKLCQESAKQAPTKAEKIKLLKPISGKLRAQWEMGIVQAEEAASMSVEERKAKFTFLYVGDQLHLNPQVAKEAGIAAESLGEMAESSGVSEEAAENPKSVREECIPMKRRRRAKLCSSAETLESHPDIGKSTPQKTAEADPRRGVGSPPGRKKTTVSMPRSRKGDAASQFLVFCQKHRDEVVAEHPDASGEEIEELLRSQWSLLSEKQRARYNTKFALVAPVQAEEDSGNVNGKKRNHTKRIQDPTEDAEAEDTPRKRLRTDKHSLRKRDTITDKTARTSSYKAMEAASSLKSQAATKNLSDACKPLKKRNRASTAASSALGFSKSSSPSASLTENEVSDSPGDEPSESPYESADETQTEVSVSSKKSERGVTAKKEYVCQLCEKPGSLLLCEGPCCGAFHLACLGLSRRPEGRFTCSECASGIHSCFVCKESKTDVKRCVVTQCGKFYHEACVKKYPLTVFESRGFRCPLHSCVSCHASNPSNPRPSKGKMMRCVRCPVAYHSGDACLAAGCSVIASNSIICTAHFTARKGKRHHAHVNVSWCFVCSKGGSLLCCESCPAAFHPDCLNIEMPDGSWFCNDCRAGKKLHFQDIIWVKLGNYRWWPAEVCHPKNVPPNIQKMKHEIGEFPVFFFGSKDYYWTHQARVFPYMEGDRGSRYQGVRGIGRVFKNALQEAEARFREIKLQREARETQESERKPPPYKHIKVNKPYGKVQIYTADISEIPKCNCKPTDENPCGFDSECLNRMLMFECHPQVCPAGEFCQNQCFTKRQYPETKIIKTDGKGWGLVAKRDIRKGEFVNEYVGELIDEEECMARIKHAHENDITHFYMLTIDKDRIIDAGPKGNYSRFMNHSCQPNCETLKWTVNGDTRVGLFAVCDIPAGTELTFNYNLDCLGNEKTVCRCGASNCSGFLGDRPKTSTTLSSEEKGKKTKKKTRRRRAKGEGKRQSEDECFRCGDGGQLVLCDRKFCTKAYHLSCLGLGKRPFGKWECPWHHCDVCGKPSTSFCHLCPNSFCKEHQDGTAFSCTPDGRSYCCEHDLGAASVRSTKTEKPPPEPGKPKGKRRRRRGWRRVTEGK
In words: Binding affinity to N-terminal His6/Sumo-tagged NSD2 PWWP1 domain (211 to 350 residues) (unknown origin) expressed in Escherichia coli BL21 (DE3) using ATKAARKSAPATGGV-Lys (me)2-KPHRYRPG polypeptide as substrate incubated for 3 hrs by HTRF assay.

In test [2] the target is T2, Histone-lysine N-methyltransferase NSD3 (Homo sapiens, UniProt Q9BZ95).
T2 sequence (Q9BZ95 whole entry): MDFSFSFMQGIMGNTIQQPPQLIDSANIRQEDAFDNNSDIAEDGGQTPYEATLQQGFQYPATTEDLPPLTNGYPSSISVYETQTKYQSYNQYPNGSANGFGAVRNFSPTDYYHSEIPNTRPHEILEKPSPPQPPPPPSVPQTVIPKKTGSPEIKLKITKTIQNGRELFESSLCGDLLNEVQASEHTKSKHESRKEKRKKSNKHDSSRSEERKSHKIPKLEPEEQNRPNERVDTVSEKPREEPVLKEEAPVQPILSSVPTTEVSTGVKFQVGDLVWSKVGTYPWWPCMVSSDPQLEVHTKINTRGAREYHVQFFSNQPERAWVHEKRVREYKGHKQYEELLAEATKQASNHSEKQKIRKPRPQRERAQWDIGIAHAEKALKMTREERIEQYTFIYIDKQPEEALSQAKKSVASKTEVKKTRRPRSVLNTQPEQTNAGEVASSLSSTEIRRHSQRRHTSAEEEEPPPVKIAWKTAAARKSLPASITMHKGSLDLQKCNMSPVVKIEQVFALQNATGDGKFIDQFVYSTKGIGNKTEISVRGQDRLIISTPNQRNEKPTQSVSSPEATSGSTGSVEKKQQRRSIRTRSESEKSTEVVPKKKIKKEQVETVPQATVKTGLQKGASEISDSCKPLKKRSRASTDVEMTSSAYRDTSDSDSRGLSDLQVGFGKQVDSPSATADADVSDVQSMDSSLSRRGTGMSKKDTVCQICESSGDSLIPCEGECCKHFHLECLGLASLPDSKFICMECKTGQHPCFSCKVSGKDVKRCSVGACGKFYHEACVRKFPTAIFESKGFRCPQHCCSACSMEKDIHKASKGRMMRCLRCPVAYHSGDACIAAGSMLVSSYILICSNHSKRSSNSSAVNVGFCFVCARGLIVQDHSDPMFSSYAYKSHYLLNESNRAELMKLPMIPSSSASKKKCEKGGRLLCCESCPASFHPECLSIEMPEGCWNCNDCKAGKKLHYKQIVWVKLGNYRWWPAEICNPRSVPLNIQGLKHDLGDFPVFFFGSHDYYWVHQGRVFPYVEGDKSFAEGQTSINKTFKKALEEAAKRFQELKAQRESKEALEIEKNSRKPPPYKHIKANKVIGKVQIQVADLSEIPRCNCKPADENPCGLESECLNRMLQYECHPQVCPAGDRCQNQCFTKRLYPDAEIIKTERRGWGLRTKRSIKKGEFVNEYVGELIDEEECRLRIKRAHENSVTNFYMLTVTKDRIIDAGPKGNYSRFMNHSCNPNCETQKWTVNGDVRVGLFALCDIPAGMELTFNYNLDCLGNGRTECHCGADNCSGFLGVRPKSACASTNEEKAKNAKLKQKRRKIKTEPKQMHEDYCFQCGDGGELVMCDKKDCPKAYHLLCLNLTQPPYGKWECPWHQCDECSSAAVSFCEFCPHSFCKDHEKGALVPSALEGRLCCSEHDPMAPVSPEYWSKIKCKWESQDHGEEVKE
Nature of the test: Binding affinity to NSD3 (unknown origin) assessed as dissociation constant.

`Cc1cc(CN2CCNCC2)cc(C)c1-c1ncn(C)c1-c1ccc(C#N)c2ccccc12`: the IC50 in test [1] turned out to be 1.89 µM.

For the compound `Cc1cc(CN2CCC(N(C)C)C2)cc(C)c1-c1ncn(C)c1-c1ccc(C#N)c2ccccc12` (configuration not stated), the IC50 in test [1] was determined as 2 µM.

`Cc1cc(CNC(C)(C)C)cc(C)c1-c1ncn(C)c1-c1ccc(C#N)c2ccccc12`: the IC50 in test [1] came out at 0.64 µM.

In the case of `Cc1cc(CN)ccc1-c1ncn(C)c1-c1ccc(C#N)cc1`, the IC50 in test [1] was determined as 4.68 µM.

In test [1], `Cc1cc(CO)cc(C)c1-c1ncn(C)c1-c1ccc(C#N)c2ccccc12` returned an IC50 of 13.8 µM.

Consider `Cn1cnc(-c2ccc(CN)cc2F)c1-c1ccc(C#N)cc1`, for which the IC50 in test [1] stood at 11.2 µM.

For the compound `CNc1cc(-c2c(-c3c(C)cc(CN)cc3C)ncn2C)ccc1C#N`, in test [1], the IC50 is greater than 20 µM.

In the case of `CCNCc1cc(C)c(-c2ncn(C)c2-c2ccc(C#N)c3ccccc23)c(C)c1`, the IC50 in test [1] worked out at 0.7 µM.

Compound `COc1cc(CN)cc(OC)c1-c1ncn(C)c1-c1ccc(C#N)cc1` returned an IC50 in test [1] of 4.44 µM.

For `Cc1cc(CNC2CC2)cc(C)c1-c1ncn(C)c1-c1ccc(C#N)c2ccccc12`, in test [1], the IC50 came out at 0.43 µM.

`Cc1cc(CN)cc(C)c1-c1ncn(C)c1-c1ccc(C#N)c(Cl)c1`: in test [1], the IC50 came to 5.03 µM.

Take `Cc1cc(NC(=O)OC(C)(C)C)cc(C)c1-c1ncn(C)c1-c1ccc(C#N)c2ccccc12`: the IC50 in test [1] is greater than 25 µM.

As to `Cc1cc(CNC(=O)OC(C)(C)C)cc(C)c1-c1ncn(C)c1-c1ccc(C#N)c2ccccc12`, in test [1], the IC50 amounted to 1.67 µM.

`Cc1cc(C=O)cc(C)c1-c1ncn(C)c1-c1ccc(C#N)c2ccccc12`: the IC50 in test [1] is greater than 21 µM.

Compound `Cc1cc(CN2CCC(O)C2)cc(C)c1-c1ncn(C)c1-c1ccc(C#N)c2ccccc12` (configuration not stated) registered an IC50 in test [1] of 0.52 µM.

The compound `Cc1cc(CN)cc(C)c1-c1ncn(C)c1-c1ccc(C#N)c2ncccc12` showed an IC50 in test [1] of 1.58 µM.

For `Cc1cc(CNCCN)cc(C)c1-c1ncn(C)c1-c1ccc(C#N)c2ccccc12`, in test [1], the IC50 is 0.62 µM.

As for `Cc1cc(CN2CCCCC2)cc(C)c1-c1ncn(C)c1-c1ccc(C#N)c2ccccc12`, the IC50 in test [1] was 1.49 µM.

On to `COc1cc(CN)ccc1-c1ncn(C)c1-c1ccc(C#N)cc1`, for which the IC50 in test [1] is 12 µM.

`Cc1cc(N)cc(C)c1-c1ncn(C)c1-c1ccc(C#N)c2ccccc12` showed an IC50 in test [1] of 10.6 µM.

`Cn1cnc(-c2ccc(CN)cc2C(F)(F)F)c1-c1ccc(C#N)cc1` yielded an IC50 in test [1] of 6.01 µM.

With `Cc1cc(CN)cc(C)c1-c1ncn(C)c1-c1ccc(C#N)cc1`, the IC50 in test [1] was 0.57 µM.

Compound `Cn1cnc(-c2ccc(CN)cc2Cl)c1-c1ccc(C#N)cc1` registered an IC50 in test [1] of 6.11 µM.

Regarding `Cc1cc(CN)cc(C)c1-c1ncn(C)c1-c1ccc(C#N)c(F)c1`, in test [1], the IC50 came out at 2.91 µM.

For the compound `CCC(=O)c1cc(C)c(-c2ncn(C)c2-c2ccc(C#N)c3ccccc23)c(C)c1`, the IC50 in test [1] is greater than 22 µM.

`Cc1cc(CN)cc(C)c1-c1ncn(C)c1-c1ccc(C#N)c(N)c1` had an IC50 in test [1] of 8.78 µM.

On to `Cc1cc(CN)cc(C)c1-c1ncn(C)c1-c1ccc(C#N)c2ccccc12`, for which the IC50 in test [1] came out at 0.52 µM.

Compound `CCC(O)c1cc(C)c(-c2ncn(C)c2-c2ccc(C#N)c3ccccc23)c(C)c1` (configuration not stated) yielded an IC50 in test [1] greater than 24 µM.

For `N#Cc1ccc(C(=O)N(Cc2cccs2)C2CC2)cc1`, in test [2], the Kd was 0.091 µM.

`Cc1cc(CN2CCN(C(=O)OC(C)(C)C)CC2)cc(C)c1-c1ncn(C)c1-c1ccc(C#N)c2ccccc12` had an IC50 in test [1] of 8.07 µM.

In turn, `Cn1cnc(-c2ccc(CN)cc2)c1-c1ccc(C#N)cc1` returned an IC50 in test [1] of 13.9 µM.

`Cc1cc(CN2CCC(NC(=O)OC(C)(C)C)CC2)cc(C)c1-c1ncn(C)c1-c1ccc(C#N)c2ccccc12`: in test [1], the IC50 worked out at 8.05 µM.

The compound `Cc1cc(C#N)cc(C)c1-c1ncn(C)c1-c1ccc(C#N)c2ccccc12` came in with an IC50 in test [1] greater than 20 µM.

Turning to `Cc1cc(CN)cc(C)c1-c1ncn(C)c1-c1ccc(C#N)c(C(F)(F)F)c1`, the IC50 in test [1] turned out to be 15.4 µM.

In test [1], `Cc1cc(CN2CCOCC2)cc(C)c1-c1ncn(C)c1-c1ccc(C#N)c2ccccc12` returned an IC50 of 3.84 µM.

`COc1cc(-c2c(-c3c(C)cc(CN)cc3C)ncn2C)ccc1C#N` showed an IC50 in test [1] of 10.9 µM.

As for `Cc1cc(CN2CCCC2)cc(C)c1-c1ncn(C)c1-c1ccc(C#N)c2ccccc12`, the IC50 in test [1] was found to be 2.07 µM.
